Assay results reported in patent US12545639B2, “3-substituted phenylamidine compounds, preparation and use thereof” (PI INDUSTRIES LTD., priority 2019, dated 2026).

How the values were obtained:
Pyricularia oryzae = assay: microbe, parasite or virus in culture; assay type: cell-based; details: 168 h, read-out: control compared to the untreated check (radial growth)
Rhizoctonia solani = Rhizoctonia solani (rice sheath blight/potato black scurf) in vitro test, radial growth on potato dextrose agar; assay type: cell-based; details: 168 h, 300 ppm in potato dextrose agar, 25° C., 60% relative humidity, seven days, read-out: control compared to the untreated check (radial growth)
Botrytis cinerea = Botrytis cinerea (gray mold) in vitro test, radial growth on potato dextrose agar; assay type: cell-based; details: 168 h, 300 ppm in potato dextrose agar, 22° C., 90% relative humidity, seven days, read-out: control compared to the untreated check (radial growth)
Alternaria solani = Alternaria solani (early blight of tomato/potato) in vitro test, radial growth on potato dextrose agar; assay type: cell-based; details: 168 h, 300 ppm in potato dextrose agar, 25° C., 60% relative humidity, seven days, read-out: control compared to the untreated check (radial growth)
Colletotrichum capsici = Colletotrichum capsici (anthracnose) in vitro test, radial growth on potato dextrose agar; assay type: cell-based; details: Colletotrichum truncatum, 168 h; 300 ppm in potato dextrose agar; 25° C., 60% relative humidity, seven days; read-out: control compared to the untreated check (radial growth)
[1] = system: Septoria lycopersici/Corynespora cassicola (CORYCA); assay: Septoria lycopersici/Corynespora cassicola (CORYCA) (leaf spot of tomato) in vitro test, radial growth on potato dextrose agar; assay type: cell-based; details: 168 h, 300 ppm in potato dextrose agar, 25° C., 70% relative humidity, seven days, read-out: control compared to the untreated check (radial growth)
Phakopsora pachyrhizi = Phakopsora pachyrhizi test in soybean, preventive, in vivo on plants; details: in Glycine max, read-out: Efficacy (% control), disease severity compared to the untreated check

CCN(C)C=Nc1cc(Cl)cc(N(C)c2cnccn2)c1C [Compound 213, N′-(5-chloro-2-methyl-3-(methyl(pyrazin-2-yl)amino)phenyl)-N-ethyl-N-methylformimidamide]
≥ 70%: inhibition of growth at 300 ppm (Pyricularia oryzae) | inhibition of growth at 300 ppm (Rhizoctonia solani) | inhibition of growth at 300 ppm (Botrytis cinerea) | inhibition of growth at 300 ppm (Alternaria solani) | inhibition of growth at 300 ppm (Colletotrichum capsici) | inhibition of growth at 300 ppm [1]

CCN(C)C=Nc1cc(F)cc(Nc2cc(C)ccc2Cl)c1C [Compound 113, N′-(3-((2-chloro-5-methylphenyl)amino)-5-fluoro-2-methylphenyl)-N-ethyl-N-methylformimidamide]
≥ 70%: inhibition of growth at 300 ppm (Pyricularia oryzae) | inhibition of growth at 300 ppm (Rhizoctonia solani) | inhibition of growth at 300 ppm (Alternaria solani) | inhibition of growth at 300 ppm (Colletotrichum capsici) | inhibition of growth at 300 ppm [1] | pest or weed control at 500 ppm (Phakopsora pachyrhizi)

CCN(C)C=Nc1cc(C)cc(Nc2cc(C)ccc2Cl)c1Cl [Compound 115, N′-(2-chloro-3-((2-chloro-5-methylphenyl)amino)-5-methylphenyl)-N-ethyl-N-methylformimidamide]
≥ 70%: inhibition of growth at 300 ppm (Pyricularia oryzae) | inhibition of growth at 300 ppm (Alternaria solani) | inhibition of growth at 300 ppm (Colletotrichum capsici) | inhibition of growth at 300 ppm [1] | pest or weed control at 500 ppm (Phakopsora pachyrhizi)

CCN(C)C=Nc1cc(C)cc(Cc2ccccc2F)c1C [Compound 219, N-ethyl-N′-(3-(2-fluorobenzyl)-2,5-dimethylphenyl)-N-methylformimidamide]
≥ 70%: inhibition of growth at 300 ppm (Pyricularia oryzae) | inhibition of growth at 300 ppm (Rhizoctonia solani) | inhibition of growth at 300 ppm (Alternaria solani) | inhibition of growth at 300 ppm (Colletotrichum capsici) | inhibition of growth at 300 ppm [1] | pest or weed control at 500 ppm (Phakopsora pachyrhizi)

CCc1cccc(Nc2cc(C)cc(N=CN(C)CC)c2Cl)n1 [Compound 226, N′-(2-chloro-3-((6-ethylpyridin-2-yl)amino)-5-methylphenyl)-N-ethyl-N-methylformimidamide]
≥ 70%: inhibition of growth at 300 ppm (Alternaria solani) | inhibition of growth at 300 ppm (Colletotrichum capsici) | inhibition of growth at 300 ppm [1]

CCN(C)C=Nc1cc(C)cc(Cc2ccccc2C)c1Br [Compound 209, N′-(2-bromo-5-methyl-3-(2-methylbenzyl)phenyl)-N-ethyl-N-methylformimidamide]
≥ 70%: inhibition of growth at 300 ppm (Rhizoctonia solani) | inhibition of growth at 300 ppm (Alternaria solani) | inhibition of growth at 300 ppm (Colletotrichum capsici) | inhibition of growth at 300 ppm [1] | pest or weed control at 500 ppm (Phakopsora pachyrhizi)

CCN(C)C=Nc1cc(C)cc(Cc2ccc(F)c(C)c2)c1Cl [Compound 68, N′-(2-chloro-3-(4-fluoro-3-methylbenzyl)-5-methylphenyl)-N-ethyl-N-methylformimidamide]
≥ 70%: inhibition of growth at 300 ppm (Pyricularia oryzae) | inhibition of growth at 300 ppm (Rhizoctonia solani) | inhibition of growth at 300 ppm (Botrytis cinerea) | inhibition of growth at 300 ppm (Alternaria solani) | inhibition of growth at 300 ppm (Colletotrichum capsici) | pest or weed control at 500 ppm (Phakopsora pachyrhizi)

CCN(C)C=Nc1cc(C)cc(Nc2cccc(Cl)c2)c1Cl [Compound 34, N′-(2-chloro-3-((3-chlorophenyl)amino)-5-methylphenyl)-N-ethyl-N-methylformimidamide]
≥ 70%: inhibition of growth at 300 ppm (Pyricularia oryzae) | inhibition of growth at 300 ppm (Rhizoctonia solani) | inhibition of growth at 300 ppm (Botrytis cinerea) | inhibition of growth at 300 ppm (Alternaria solani) | inhibition of growth at 300 ppm (Colletotrichum capsici) | pest or weed control at 500 ppm (Phakopsora pachyrhizi)

CCN(C)C=Nc1cc(F)cc(Cc2cc(F)ccc2Br)c1C [Compound 233, N′-(3-(2-bromo-5-fluorobenzyl)-5-fluoro-2-methylphenyl)-N-ethyl-N-methylformimidamide]
≥ 70%: inhibition of growth at 300 ppm (Pyricularia oryzae) | inhibition of growth at 300 ppm (Rhizoctonia solani) | inhibition of growth at 300 ppm (Botrytis cinerea) | inhibition of growth at 300 ppm (Alternaria solani) | inhibition of growth at 300 ppm (Colletotrichum capsici) | pest or weed control at 500 ppm (Phakopsora pachyrhizi)

CCN(C)C=Nc1cc(F)cc(Nc2cc(C)cc(F)c2)c1C [Compound 114, N-ethyl-N′-(5-fluoro-3-((3-fluoro-5-methylphenyl)amino)-2-methylphenyl)-N-methylformimidamide]
≥ 70%: inhibition of growth at 300 ppm (Pyricularia oryzae) | inhibition of growth at 300 ppm (Alternaria solani) | inhibition of growth at 300 ppm (Colletotrichum capsici) | inhibition of growth at 300 ppm [1] | pest or weed control at 500 ppm (Phakopsora pachyrhizi)

CCN(C)C=Nc1cc(C)cc(N(C)c2ncc(Cl)cc2C)c1Cl [Compound 118, N′-(2-chloro-3-((5-chloro-3-methylpyridin-2-yl)(methyl)amino)-5-methylphenyl)-N-ethyl-N-methylformimidamide]
≥ 70%: inhibition of growth at 300 ppm (Pyricularia oryzae) | inhibition of growth at 300 ppm (Botrytis cinerea) | inhibition of growth at 300 ppm (Alternaria solani) | inhibition of growth at 300 ppm (Colletotrichum capsici) | inhibition of growth at 300 ppm [1]

CCN(C)C=Nc1cc(Cl)cc(Cc2ccc(Cl)c(F)c2)c1C [Compound 131, N′-(5-chloro-3-(4-chloro-3-fluorobenzyl)-2-methylphenyl)-N-ethyl-N-methylformimidamide]
≥ 70%: inhibition of growth at 300 ppm (Pyricularia oryzae) | inhibition of growth at 300 ppm (Rhizoctonia solani) | inhibition of growth at 300 ppm (Alternaria solani) | inhibition of growth at 300 ppm (Colletotrichum capsici) | inhibition of growth at 300 ppm [1] | pest or weed control at 500 ppm (Phakopsora pachyrhizi)

CCN(C)C=Nc1cc(C)cc(Cc2cc(F)c(OC)c(F)c2)c1Cl [Compound 71, N′-(2-chloro-3-(3,5-difluoro-4-methoxybenzyl)-5-methylphenyl)-N-ethyl-N-methylformimidamide]
≥ 70%: inhibition of growth at 300 ppm (Pyricularia oryzae) | inhibition of growth at 300 ppm (Rhizoctonia solani) | inhibition of growth at 300 ppm (Botrytis cinerea) | inhibition of growth at 300 ppm (Alternaria solani) | inhibition of growth at 300 ppm (Colletotrichum capsici) | pest or weed control at 500 ppm (Phakopsora pachyrhizi)

CCN(C)C=Nc1cc(C)cc(Cc2ccc(OC)cc2)c1Cl [Compound 150, N′-(2-chloro-3-(4-methoxybenzyl)-5-methylphenyl)-N-ethyl-N-methylformimidamide]
≥ 70%: inhibition of growth at 300 ppm (Pyricularia oryzae) | inhibition of growth at 300 ppm (Rhizoctonia solani) | inhibition of growth at 300 ppm (Botrytis cinerea) | inhibition of growth at 300 ppm (Alternaria solani) | inhibition of growth at 300 ppm (Colletotrichum capsici) | pest or weed control at 500 ppm (Phakopsora pachyrhizi)

CCN(C)C=Nc1cc(F)cc(N(C)c2ccccc2)c1C [Compound 11, N-ethyl-N′-(5-fluoro-2-methyl-3-(methyl(phenyl)amino)phenyl)-N-methylformimidamide]
≥ 70%: inhibition of growth at 300 ppm (Rhizoctonia solani) | inhibition of growth at 300 ppm (Botrytis cinerea) | inhibition of growth at 300 ppm (Alternaria solani) | inhibition of growth at 300 ppm (Colletotrichum capsici) | inhibition of growth at 300 ppm [1]

CCN(C)C=Nc1cc(C)cc(Cc2ccccc2C(F)(F)F)c1Cl [Compound 21, N′-(2-chloro-5-methyl-3-(2-(trifluoromethyl)benzyl)phenyl)-N-ethyl-N-methylformimidamide]
≥ 70%: inhibition of growth at 300 ppm (Pyricularia oryzae) | inhibition of growth at 300 ppm (Rhizoctonia solani) | inhibition of growth at 300 ppm (Botrytis cinerea) | inhibition of growth at 300 ppm (Alternaria solani) | inhibition of growth at 300 ppm (Colletotrichum capsici) | pest or weed control at 500 ppm (Phakopsora pachyrhizi)

CCN(C)C=Nc1cc(C)cc(Cc2ccc(F)cc2C)c1Cl [Compound 65, N′-(2-chloro-3-(4-fluoro-2-methylbenzyl)-5-methylphenyl)-N-ethyl-N-methylformimidamide]
≥ 70%: inhibition of growth at 300 ppm (Pyricularia oryzae) | inhibition of growth at 300 ppm (Rhizoctonia solani) | inhibition of growth at 300 ppm (Botrytis cinerea) | inhibition of growth at 300 ppm (Alternaria solani) | inhibition of growth at 300 ppm (Colletotrichum capsici) | pest or weed control at 500 ppm (Phakopsora pachyrhizi)

CCN(C)C=Nc1cc(Cl)cc(Cc2cccc(F)c2)c1C [Compound 102, N′-(5-chloro-3-(3-fluorobenzyl)-2-methylphenyl)-N-ethyl-N-methylformimidamide]
≥ 70%: inhibition of growth at 300 ppm (Pyricularia oryzae) | inhibition of growth at 300 ppm (Rhizoctonia solani) | inhibition of growth at 300 ppm (Botrytis cinerea) | inhibition of growth at 300 ppm (Alternaria solani) | inhibition of growth at 300 ppm (Colletotrichum capsici) | pest or weed control at 500 ppm (Phakopsora pachyrhizi)

CCN(C)C=Nc1cc(C)cc(Cc2cccc(F)c2)c1Br [Compound 189, N′-(2-bromo-3-(3-fluorobenzyl)-5-methylphenyl)-N-ethyl-N-methylformimidamide]
≥ 70%: inhibition of growth at 300 ppm (Pyricularia oryzae) | inhibition of growth at 300 ppm (Rhizoctonia solani) | inhibition of growth at 300 ppm (Alternaria solani) | inhibition of growth at 300 ppm (Colletotrichum capsici) | inhibition of growth at 300 ppm [1] | pest or weed control at 500 ppm (Phakopsora pachyrhizi)

CCN(C)C=Nc1cc(C)cc(Nc2ccccc2F)c1Cl [Compound 23, N′-(2-chloro-3-((2-fluorophenyl)amino)-5-methylphenyl)-N-ethyl-N-methylformimidamide]
≥ 70%: inhibition of growth at 300 ppm (Pyricularia oryzae) | inhibition of growth at 300 ppm (Rhizoctonia solani) | inhibition of growth at 300 ppm (Alternaria solani) | inhibition of growth at 300 ppm (Colletotrichum capsici) | inhibition of growth at 300 ppm [1] | pest or weed control at 500 ppm (Phakopsora pachyrhizi)

CCN(C)C=Nc1cc(Cl)cc(Cc2cccc(Cl)c2)c1C [Compound 101, N′-(5-chloro-3-(3-chlorobenzyl)-2-methylphenyl)-N-ethyl-N-methylformimidamide]
≥ 70%: inhibition of growth at 300 ppm (Pyricularia oryzae) | inhibition of growth at 300 ppm (Alternaria solani) | inhibition of growth at 300 ppm (Colletotrichum capsici) | inhibition of growth at 300 ppm [1] | pest or weed control at 500 ppm (Phakopsora pachyrhizi)

CCN(C)C=Nc1cc(C)cc(Nc2cccc(C)c2)c1Cl [Compound 36, N′-(2-chloro-5-methyl-3-(m-tolylamino)phenyl)-N-ethyl-N-methylformimidamide]
≥ 70%: inhibition of growth at 300 ppm (Pyricularia oryzae) | inhibition of growth at 300 ppm (Alternaria solani) | inhibition of growth at 300 ppm (Colletotrichum capsici) | inhibition of growth at 300 ppm [1] | pest or weed control at 500 ppm (Phakopsora pachyrhizi)

CCN(C)C=Nc1cc(F)cc(N(C)c2cccc(C)c2F)c1C [Compound 152, N-ethyl-N′-(5-fluoro-3-((2-fluoro-3-methylphenyl)(methyl)amino)-2-methylphenyl)-N-methylformimidamide]
≥ 70%: inhibition of growth at 300 ppm (Pyricularia oryzae) | inhibition of growth at 300 ppm (Rhizoctonia solani) | inhibition of growth at 300 ppm (Botrytis cinerea) | inhibition of growth at 300 ppm (Alternaria solani) | inhibition of growth at 300 ppm (Colletotrichum capsici) | pest or weed control at 500 ppm (Phakopsora pachyrhizi)
